US20150118229A1, “JAK1 SELECTIVE INHIBITOR AND USES THEREOF” (ABBVIE INC., priority 2013, published 2015)

What was measured:
[1] = tested on: peripheral NK cell counts; assay: Peripheral NK cell counts in healthy rats; format: in vivo, rat; conditions: rat
Text: The correlation of this effect with ex vivo cytokine signaling inhibition is shown in the right panel of FIG. 6. These measurements correlated well, confirming the Jak dependency of the NK cell count endpoint.
To establish the relationship between changes in NK cell counts and nonclinical efficacy, the changes in NK cell counts were compared with decreases in rat AIA disease activity per unit exposure.

[2] = tested on: adjuvant-induced arthritis (paw swelling, bone erosion); assay: Adjuvant-induced arthritis (AIA) in Lewis rats; format: in vivo
Procedure: The inflammation appears in the contra-lateral (left) hind paw seven days after the initial immunization. […] Rats are lightly anesthetized with an inhalant anesthetic (isoflurane) and the contra-lateral (left) hind paw is dipped into the plethysmograph and the paw volume is recorded. The rats are scored every other day up to day 17 after immunization. […] Bone volume and density is determined for a 360 μm (200 slice) vertical section encompassing the tarsal section of the paw. […] Drug exposure is determined in the plasma using LC/MS.

Structure (SMILES): C[C@@H]1CCN(C(=O)CC#N)C[C@@H]1N(C)c1ncnc2[nH]ccc12 [Tofacitinib, reference compound]
- NK Counts (exposure) [1]: 391 ng·h/mL
- NK cell count decrease at about 60% efficacy (inhibition of paw swelling) [1]: about 80%
- efficacious exposure (AUC60), PK/PD modeling ([2]; AIA rats, about 60% inhibition of paw swelling): ~300 ng·h/mL
- AUC60 (60% inhibition of paw swelling), total AUC0-12 ([2]; oral bid, last day of study): 392 ± 121 ng·h/mL
- AUC60, fraction unbound AUC0-12 ([2]; oral bid, last day of study): 300 ± 98 ng·h/mL
- Paw Swelling (exposure) ([2]; rat AIA): 514 ng·h/mL
- inhibition of Paw Swelling reached at about the same level of reticulocyte inhibition ([2]; rat AIA vs reticulocyte deployment): about 60%
